# Test results reported in PubChem BioAssay (NCI).
#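 Step 1: Grow cells in 96-well plates. Step 2: Expose to compound for 48 hours at 5 concentrations. Step 3: Interpolate endpoints linearly; if unreached, use highest concentration. Here, GI50 denotes the concentration required for 50% inhibition of growth. The concentration for full growth arrest is given as TGI.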
# Experiments:
# Assay in all cases: NCI tumour cell line growth inhibition, 48 h
# EKVX NSCLC = tested on: EKVX NSCLC
# K-562 leukemia = tested on: K-562 leukemia
# LOX IMVI melanoma = tested on: LOX IMVI melanoma
# OVCAR-5 ovarian = tested on: OVCAR-5 ovarian
# PC-3 prostate = tested on: PC-3 prostate
# SF-268 CNS = tested on: SF-268 CNS
# SK-MEL-2 melanoma = tested on: SK-MEL-2 melanoma
# T-47D breast = tested on: T-47D breast
# U251 CNS = tested on: U251 CNS
# HOP-92 NSCLC = tested on: HOP-92 NSCLC
SMILES,GI50 (EKVX NSCLC) [µM],TGI (EKVX NSCLC) [µM],GI50 (K-562 leukemia) [µM],TGI (K-562 leukemia) [µM],GI50 (LOX IMVI melanoma) [µM],TGI (LOX IMVI melanoma) [µM],GI50 (OVCAR-5 ovarian) [µM],TGI (OVCAR-5 ovarian) [µM],GI50 (PC-3 prostate) [µM],TGI (PC-3 prostate) [µM],GI50 (SF-268 CNS) [µM],TGI (SF-268 CNS) [µM],GI50 (SK-MEL-2 melanoma) [µM],TGI (SK-MEL-2 melanoma) [µM],GI50 (T-47D breast) [µM],TGI (T-47D breast) [µM],GI50 (U251 CNS) [µM],TGI (U251 CNS) [µM],GI50 (HOP-92 NSCLC) [µM],TGI (HOP-92 NSCLC) [µM]
O=C1OCC2=C1C(c1cccc(Cl)c1)c1cc3c(cc1N2CCO)OCCO3 (stereo unspecified),1.54,> 89.8,0.0481,> 45.7,0.0689,17.9,0.539,> 100,0.0502,13.1,0.0598,13.2,0.0335,0.607,0.0677,> 100,0.0542,7.14,–,–
CC(=O)[CH-]C(=O)c1ccccc1.CC(=O)[CH-]C(=O)c1ccccc1.CC[O-].CC[O-].[Hf+4],38.2,> 100,> 100,> 100,> 100,> 100,> 100,> 100,–,–,> 100,> 100,> 100,> 100,–,–,> 100,> 100,36.8,> 100
Cc1nc(Nc2ccccc2)sc1C(=O)CC(=O)C(=O)Nc1c(C(C)C)cccc1C(C)C,–,89.5,–,> 100,–,> 100,–,> 100,–,–,–,> 100,–,> 100,–,–,–,> 100,–,> 100
NNC(=O)C1CCC(=O)N1S(=O)(=O)c1ccccc1 (stereo unspecified),–,> 100,–,> 100,–,> 100,–,> 100,–,–,–,> 100,–,> 100,–,–,–,> 100,–,> 100
CN(C(=O)C12C3C4C1C1C2C3C41C(N)=O)C(C)(C)C (stereo unspecified),–,> 100,–,> 100,–,–,–,> 100,–,–,–,> 100,–,–,–,–,–,–,–,> 100
N/N=C(/C(=O)Nc1cccc(Cl)c1)C(C(=O)c1ccc(O)cc1O)C1OC(=O)c2ccccc21 (stereo unspecified),–,> 100,–,> 100,–,> 100,–,> 100,–,–,–,> 100,–,> 100,–,–,–,> 100,–,–
COc1cc(OC)c2nc(C)c3c(c2c1)SCC3,–,52.9,–,> 100,–,> 100,–,80.2,–,53.1,–,44.6,–,67.5,–,58,–,55.9,–,–
Cc1cc([N+](=O)[O-])c(NS(=O)(=O)c2cccc(C(=O)O)c2)cc1-c1cccnc1,> 100,> 100,> 100,> 100,> 100,> 100,> 100,> 100,> 100,> 100,> 100,> 100,–,–,> 100,> 100,> 100,> 100,> 100,> 100
O=[N+]([O-])c1ccc(-n2nnc(C3=NCCN3)c2-c2ccccc2)cc1,–,> 100,–,> 100,–,> 100,–,> 100,–,–,–,> 100,–,> 100,–,–,–,> 100,–,> 100
C=C/C=C/NC(=O)OCc1ccccc1,–,> 100,–,> 100,–,> 100,–,> 100,–,–,–,> 100,–,> 100,–,–,–,> 100,–,> 100
CCOC(=O)CC[C@H](NC(=O)c1nc[nH]c1[N+](=O)[O-])C(=O)OCC,–,> 100,–,> 100,–,> 100,–,–,–,–,–,> 100,–,> 100,–,–,–,> 100,–,> 100
O=C1NNC2(C(=O)N1)c1ccccc1-c1ccccc12,–,> 10,–,> 10,–,> 10,–,–,–,> 10,–,> 10,–,–,–,> 10,–,–,–,> 10
O=C(O)CC[C@H](NC(=O)c1ccc(-n2nc3ccc(O)cc3nc2=O)cc1)C(=O)O,–,> 100,–,> 100,–,–,–,> 100,–,–,–,> 100,–,> 100,–,–,–,> 100,–,> 100
CC(CN(C)C)/C(=N\Nc1ccccc1)c1ccccc1 (stereo unspecified),–,35.6,–,0.527,–,4.16,–,5.45,–,–,–,16.6,–,–,–,–,–,5.88,–,–
O=C1C(c2ccccc2)=C(O)c2cccc3cccc1c23,–,> 100,–,> 100,–,> 100,–,> 100,–,–,–,> 100,–,> 100,–,–,–,> 100,–,> 100
OC(CCNC12CC3CC(CC(C3)C1)C2)c1ccccc1 (stereo unspecified),–,> 100,–,–,–,–,–,> 100,–,–,–,> 100,–,> 100,–,–,–,> 100,–,> 100
CC1(C)CC(O)C(C)(C)[C@@H](O)C1 (stereo partly specified),–,> 100,–,> 100,–,> 100,–,> 100,–,> 100,–,> 100,–,> 100,–,> 100,–,> 100,–,–
CCOc1cc2c(C(=O)CC)c(O)ccc2o1,–,> 100,–,> 81.7,–,> 100,–,> 100,–,–,–,> 100,–,> 100,–,–,–,> 100,–,> 100
O=C(c1ccc(Cl)cc1Cl)C1[C@H]2C(=O)N(c3ccc(Cc4ccc(N5C(=O)[C@@H]6ON(c7ccccc7)C(C(=O)c7ccc(Cl)cc7Cl)[C@@H]6C5=O)cc4)cc3)C(=O)[C@H]2ON1c1ccccc1 (stereo partly specified),–,–,–,> 50,–,> 50,–,> 50,–,–,–,> 50,–,> 50,–,–,–,> 50,–,–
COc1cc2c[n+](C)c3c4cc(OC)c(OC(C)C)cc4ccc3c2cc1OC,–,> 100,–,> 100,–,> 100,–,> 100,–,–,–,> 100,–,40,–,–,–,> 100,–,> 100
C=C1CC2OC(=O)C(=C)C2C(O)C2C(=C)CCC12 (stereo unspecified),–,19.7,–,30.5,–,–,–,24.7,–,–,–,32.3,–,40.8,–,–,–,30.8,–,5.84
CCOC(C[C@H](O[Si](C)(C)C(C)(C)C)[C@H]1COC(=S)S1)OCC,–,> 100,–,> 100,–,> 100,–,–,–,–,–,> 100,–,–,–,–,–,> 100,–,–
COC(C(=O)NN)c1ccccc1 (stereo unspecified),–,> 100,–,> 100,–,–,–,> 100,–,> 100,–,> 100,–,> 100,–,–,–,> 100,–,> 100
Cc1ccc(S(=O)(=O)c2c(COC(=O)c3cccc(C)c3)c(-c3ccccc3)nn2C)cc1,–,–,–,–,> 100,> 100,> 100,> 100,> 100,> 100,> 100,> 100,–,–,8.53,> 100,> 100,> 100,> 100,> 100
